{"source": "patent US20100004289A1", "about": "“SUBSTITUTED BUTYROPHENONE DERIVATIVES” (priority 2005, published 2010)", "key": {"[1]": {"target": "T1, cloned dopamine human D2Long receptor (Homo sapiens, UniProt P14416)", "T1 construct": "purchased Research Biochemicals International (Natick, Mass.); host or cells: Sf9 cells or CHO cells", "T1 sequence (P14416 whole entry)": "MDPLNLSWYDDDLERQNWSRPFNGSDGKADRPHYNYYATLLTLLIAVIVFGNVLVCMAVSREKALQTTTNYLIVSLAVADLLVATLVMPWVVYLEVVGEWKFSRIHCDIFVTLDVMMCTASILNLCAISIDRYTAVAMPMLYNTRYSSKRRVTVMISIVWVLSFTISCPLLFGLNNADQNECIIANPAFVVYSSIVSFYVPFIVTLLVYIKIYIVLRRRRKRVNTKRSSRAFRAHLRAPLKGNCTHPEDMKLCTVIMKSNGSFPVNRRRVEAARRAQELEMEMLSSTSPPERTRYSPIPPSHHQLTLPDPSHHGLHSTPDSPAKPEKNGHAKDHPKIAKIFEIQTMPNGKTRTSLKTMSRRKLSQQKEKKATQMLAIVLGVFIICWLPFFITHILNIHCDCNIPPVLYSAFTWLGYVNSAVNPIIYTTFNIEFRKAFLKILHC", "test": "Competitive binding at cloned dopamine D2 receptor ([3H]raclopride)", "conditions": "2 nM [3H]raclopride, read-out: dissociation constant, K, at D2 receptor", "experimental": "(§1) Human dopamine D1 receptors (in Sf9 cells or COS cells), human dopamine D2Long receptors (in Sf9 cells or CHO cells), human alpha-adrenoceptor-2A receptors, and human muscarinic M1 receptors, all expressed in Sf9 cells, were purchased from Research Biochemicals International (Natick, Mass.). The frozen membranes containing the receptors were directly suspended at approximately 100 μg protein/ml and the cell suspension was homogenized for 5 s (Polytron, setting 5) without any further washing."}, "[2]": {"target": "muscarinic cholinergic receptor (rat cortex tissue)", "test": "Competitive binding at muscarinic receptor ([3H]QNB)", "conditions": "read-out: dissociation constant at muscarinic cholinergic receptor"}, "[3]": {"target": "T2, serotonin-1A receptor (rat frontal cortex tissue) (Rattus norvegicus, UniProt P19327)", "T2 construct": "tissue Pel-Freez (Rogers, Ark.); host or cells: rat frontal cerebral cortex", "T2 sequence (P19327 1-422)": "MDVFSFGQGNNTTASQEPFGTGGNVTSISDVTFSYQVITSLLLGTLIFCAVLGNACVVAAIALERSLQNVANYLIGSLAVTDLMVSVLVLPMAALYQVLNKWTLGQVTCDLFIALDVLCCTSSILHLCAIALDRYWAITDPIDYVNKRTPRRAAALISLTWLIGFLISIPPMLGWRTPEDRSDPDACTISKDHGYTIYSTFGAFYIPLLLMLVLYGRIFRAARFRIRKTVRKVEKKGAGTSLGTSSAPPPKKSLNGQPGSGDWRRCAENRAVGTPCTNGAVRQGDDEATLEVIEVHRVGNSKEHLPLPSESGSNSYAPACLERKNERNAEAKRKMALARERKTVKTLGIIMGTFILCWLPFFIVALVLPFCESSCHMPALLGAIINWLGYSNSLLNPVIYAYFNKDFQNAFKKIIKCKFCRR", "test": "Competitive binding at serotonin-1A receptor ([3H]8-OH-DPAT), rat tissue", "conditions": "read-out: dissociation constant at serotonin-1A receptor"}, "[4]": {"target": "T3, dopamine D1 receptor (rat striatal tissue) (Rattus norvegicus, UniProt P18901)", "T3 construct": "tissue Pel-Freez (Rogers, Ark.); host or cells: rat brain striatum", "T3 sequence (P18901 whole entry)": "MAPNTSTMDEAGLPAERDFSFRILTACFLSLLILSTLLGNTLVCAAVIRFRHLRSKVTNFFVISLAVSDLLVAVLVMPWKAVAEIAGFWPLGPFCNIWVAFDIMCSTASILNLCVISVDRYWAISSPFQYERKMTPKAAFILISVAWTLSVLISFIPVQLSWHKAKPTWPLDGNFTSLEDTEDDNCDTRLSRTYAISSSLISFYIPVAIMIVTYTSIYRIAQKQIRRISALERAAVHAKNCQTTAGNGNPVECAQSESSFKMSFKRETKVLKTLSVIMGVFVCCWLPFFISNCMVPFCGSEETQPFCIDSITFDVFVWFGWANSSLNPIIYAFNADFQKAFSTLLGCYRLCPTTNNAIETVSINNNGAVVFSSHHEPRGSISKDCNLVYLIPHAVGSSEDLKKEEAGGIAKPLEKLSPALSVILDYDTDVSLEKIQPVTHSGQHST", "test": "Competitive binding at dopamine D1 receptor ([3H]SCH23390), rat tissue", "conditions": "read-out: dissociation constant at dopamine D1 receptor"}, "[5]": {"target": "alpha-1-adrenoceptor (rat cortex)", "test": "Competitive binding at alpha-1-adrenoceptor ([3H]prazosin)", "conditions": "read-out: dissociation constant at alpha-1-adrenoceptor"}, "[6]": {"target": "T4, alpha-2-adrenoceptor (cloned in Sf9 cells) (Homo sapiens, UniProt P08913)", "T4 construct": "purchased Research Biochemicals International (Natick, Mass.); host or cells: Sf9 cells", "T4 sequence (P08913 1-465)": "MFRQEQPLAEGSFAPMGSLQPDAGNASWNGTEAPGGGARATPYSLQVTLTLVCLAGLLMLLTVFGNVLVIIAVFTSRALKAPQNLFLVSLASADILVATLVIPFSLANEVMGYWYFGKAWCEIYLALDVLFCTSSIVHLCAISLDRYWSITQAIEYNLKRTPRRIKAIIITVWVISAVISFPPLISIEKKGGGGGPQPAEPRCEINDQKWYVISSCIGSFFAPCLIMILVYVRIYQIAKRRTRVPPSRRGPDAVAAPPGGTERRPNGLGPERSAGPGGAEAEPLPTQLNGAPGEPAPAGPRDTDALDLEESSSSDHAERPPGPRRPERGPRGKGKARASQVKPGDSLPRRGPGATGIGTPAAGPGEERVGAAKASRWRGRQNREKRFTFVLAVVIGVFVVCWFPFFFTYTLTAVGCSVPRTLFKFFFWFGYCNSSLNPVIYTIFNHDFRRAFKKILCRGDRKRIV", "test": "Competitive binding at alpha-2-adrenoceptor ([3H]yohimbine)", "conditions": "read-out: dissociation constant at alpha-2-adrenoceptor", "experimental": "as §1"}, "[7]": {"target": "T5, histamine H1 receptor (rat cortex) (Rattus norvegicus, UniProt P31390)", "T5 construct": "tissue Pel-Freez (Rogers, Ark.); host or cells: rat cortex", "T5 sequence (P31390 whole entry)": "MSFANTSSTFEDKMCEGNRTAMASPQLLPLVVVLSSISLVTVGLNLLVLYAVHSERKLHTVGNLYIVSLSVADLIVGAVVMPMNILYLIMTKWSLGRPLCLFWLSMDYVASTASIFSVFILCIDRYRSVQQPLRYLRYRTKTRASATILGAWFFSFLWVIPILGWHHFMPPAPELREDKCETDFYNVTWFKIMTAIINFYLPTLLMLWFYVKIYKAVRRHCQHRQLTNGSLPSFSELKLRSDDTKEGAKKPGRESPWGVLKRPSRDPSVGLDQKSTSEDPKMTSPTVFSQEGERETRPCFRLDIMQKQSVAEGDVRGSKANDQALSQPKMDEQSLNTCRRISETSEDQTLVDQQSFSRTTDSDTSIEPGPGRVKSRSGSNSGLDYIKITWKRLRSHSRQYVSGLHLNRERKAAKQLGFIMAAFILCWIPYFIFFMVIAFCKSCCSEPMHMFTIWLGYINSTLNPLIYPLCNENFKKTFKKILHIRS", "test": "Competitive binding at histamine H1 receptor", "conditions": "read-out: dissociation constant at histamine H1 receptor"}, "[8]": {"target": "T6, cloned dopamine D2 receptor (Homo sapiens, UniProt P14416)", "T6 construct": "purchased Research Biochemicals International (Natick, Mass.); host or cells: Sf9 cells or CHO cells", "T6 sequence (P14416 whole entry)": "as the sequence (P14416 whole entry) above", "test": "Dissociation from the cloned dopamine D2 receptor", "type": "binding"}, "[9]": {"target": "T7, dopamine D2 receptors (Rattus norvegicus, UniProt P61169)", "T7 construct": "from tissue; host or cells: striatum of living Sprague-Dawley rats", "T7 sequence (P61169 whole entry)": "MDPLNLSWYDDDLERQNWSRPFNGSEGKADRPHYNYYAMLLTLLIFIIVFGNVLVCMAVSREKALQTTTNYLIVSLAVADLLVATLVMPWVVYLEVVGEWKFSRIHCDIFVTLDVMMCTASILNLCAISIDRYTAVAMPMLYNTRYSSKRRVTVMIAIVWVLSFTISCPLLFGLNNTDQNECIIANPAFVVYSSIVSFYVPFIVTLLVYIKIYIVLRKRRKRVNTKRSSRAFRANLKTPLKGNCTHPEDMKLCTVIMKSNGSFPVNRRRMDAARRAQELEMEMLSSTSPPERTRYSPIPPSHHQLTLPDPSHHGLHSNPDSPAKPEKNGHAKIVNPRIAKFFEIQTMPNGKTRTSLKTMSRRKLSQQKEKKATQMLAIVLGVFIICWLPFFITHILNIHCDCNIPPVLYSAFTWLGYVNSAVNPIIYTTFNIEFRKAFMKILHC", "test": "In vivo D2 occupancy ([3H]raclopride, striatum)", "conditions": "for receptor occupancy at 20 mg/kg: po, oral 20 mg/kg, rats", "experimental": "Sprague-Dawley rats (each 250 g) received an oral dose of test compound of 20 mg/kg by gavage, using 2 ml per gavage feeding. The test compound solution was prepared as follows: 20 mg of test compound was added to 8 ml saline (0.9% NaCl), followed by the addition of a few drops of 2% lactic acid and back titration of the suspension to pH 5 using 0.1 N NaOH. A fine particulate suspension was used for gavage. Each rat received 2 ml of the suspension over a period of 5 minutes. […] The D2 occupancy in the striatum was calculated."}, "[10]": {"system": "catalepsy", "test": "Catalepsy (horizontal bar)", "type": "in vivo", "conditions": "up to 60 mg/kg in mice", "excerpt": "The front paws of the animal were placed on a horizontal bar. Control animals quickly moved off the bar. Cataleptic animals held on to the bar for up to 15 seconds or more."}, "[11]": {"target": "sigma receptor (rat striatal tissue) (Rattus norvegicus, UniProt Q9R0C9)", "sequence (Q9R0C9 whole entry)": "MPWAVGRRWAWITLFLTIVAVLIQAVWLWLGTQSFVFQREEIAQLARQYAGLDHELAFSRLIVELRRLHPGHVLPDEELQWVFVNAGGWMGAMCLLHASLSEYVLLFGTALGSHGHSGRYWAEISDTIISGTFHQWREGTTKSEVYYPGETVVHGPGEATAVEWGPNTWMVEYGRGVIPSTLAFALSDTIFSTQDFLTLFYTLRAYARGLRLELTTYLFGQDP", "test": "biochemical"}, "[12]": {"target": "T8, HERG channel receptor (Rattus norvegicus, UniProt O08962)", "T8 sequence (O08962 1-1163)": "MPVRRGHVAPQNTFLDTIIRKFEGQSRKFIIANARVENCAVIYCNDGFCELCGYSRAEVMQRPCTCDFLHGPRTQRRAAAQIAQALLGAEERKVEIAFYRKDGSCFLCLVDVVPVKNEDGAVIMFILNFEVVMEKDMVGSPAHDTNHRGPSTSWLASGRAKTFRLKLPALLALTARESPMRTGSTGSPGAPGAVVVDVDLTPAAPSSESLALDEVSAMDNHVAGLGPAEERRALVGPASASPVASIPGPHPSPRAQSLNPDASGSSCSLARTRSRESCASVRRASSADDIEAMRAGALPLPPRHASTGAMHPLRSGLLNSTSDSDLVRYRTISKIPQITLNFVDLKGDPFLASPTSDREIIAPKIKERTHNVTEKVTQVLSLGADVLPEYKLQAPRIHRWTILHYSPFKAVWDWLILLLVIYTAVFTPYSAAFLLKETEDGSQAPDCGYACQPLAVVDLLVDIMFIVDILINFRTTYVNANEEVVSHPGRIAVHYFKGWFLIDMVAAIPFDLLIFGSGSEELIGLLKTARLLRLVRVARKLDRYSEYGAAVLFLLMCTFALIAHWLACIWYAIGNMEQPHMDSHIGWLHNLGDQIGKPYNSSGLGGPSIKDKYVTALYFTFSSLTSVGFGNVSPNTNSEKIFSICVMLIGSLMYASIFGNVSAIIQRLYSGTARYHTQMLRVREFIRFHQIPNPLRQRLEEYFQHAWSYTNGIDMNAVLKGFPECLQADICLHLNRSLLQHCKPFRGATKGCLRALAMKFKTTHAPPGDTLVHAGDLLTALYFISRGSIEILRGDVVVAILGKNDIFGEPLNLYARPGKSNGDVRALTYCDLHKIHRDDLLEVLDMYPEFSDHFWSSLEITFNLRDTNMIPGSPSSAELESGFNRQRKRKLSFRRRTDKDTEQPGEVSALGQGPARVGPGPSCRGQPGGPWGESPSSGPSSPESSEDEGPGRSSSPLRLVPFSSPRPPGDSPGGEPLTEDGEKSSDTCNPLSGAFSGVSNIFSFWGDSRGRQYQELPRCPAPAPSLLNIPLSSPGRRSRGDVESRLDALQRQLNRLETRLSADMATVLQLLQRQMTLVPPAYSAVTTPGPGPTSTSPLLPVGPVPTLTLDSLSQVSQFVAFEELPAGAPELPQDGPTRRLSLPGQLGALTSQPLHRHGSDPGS", "test": "Competitive binding at HERG channel ([3H]dofetilide)"}, "[13]": {"target": "rat brain or human brain dopamine D2 receptor", "conditions": "read-out: affinity (dissociation constant) of dopamine at the high-affinity state of D2; cited from earlier work"}}, "note": "Values joined by “and” are separate entries in the source; they are usually repeats but may differ in a detail not shown here. Equal entries are not always repeated.", "data": [{"smiles": "COc1cccc(C(=O)CCCN2CCC(O)(c3ccc(Cl)cc3)CC2)c1", "note": "[Example 2(a), 4-[4-(4-chlorophenyl)-4-hydroxypiperidin-1-yl]-1-(3-methoxyphenyl)butan-1-one]", "values": [{"measurement": "Ki", "setting": "[1]", "result": "140 ± 8", "unit": "nM"}, {"measurement": "Ki", "setting": "[2]", "result": 570, "unit": "nM"}, {"measurement": "Ki", "setting": "[3]", "result": 12000, "unit": "nM"}, {"measurement": "Ki", "setting": "[4]", "result": 11000, "unit": "nM"}, {"measurement": "Ki", "setting": "[5]", "result": 1070, "unit": "nM"}, {"measurement": "Ki", "setting": "[6]", "result": 9500, "unit": "nM"}, {"measurement": "Ki", "setting": "[7]", "result": 1140, "unit": "nM"}, {"measurement": "time at which dissociation from cloned D2 receptor was 50% completed", "setting": "[8]", "result": 23, "unit": "s"}, {"measurement": "receptor occupancy at 20 mg/kg", "setting": "[9]; 30 min", "result": 39, "unit": "%"}, {"measurement": "receptor occupancy at 20 mg/kg", "setting": "[9]; 1 hour", "result": 63, "unit": "%"}, {"measurement": "receptor occupancy at 20 mg/kg", "setting": "[9]; 2 hour", "result": 24, "unit": "%"}, {"measurement": "receptor occupancy at 20 mg/kg", "setting": "[9]; 3 hour", "result": 28, "unit": "%"}, {"measurement": "receptor occupancy at 10 mg/kg", "setting": "[9]; sc, 10 mg/kg subcutaneous, after one hour, Sprague Dawley rats", "result": 61, "unit": "%"}, {"measurement": "catalepsy", "setting": "[10]", "result": "did not result in any catalepsy"}, {"measurement": "melting point", "result": "127 to 129", "unit": "°C"}, {"measurement": "Ki", "setting": "[11]", "result": 200, "unit": "nM"}, {"measurement": "Ki", "setting": "[12]", "result": 2600, "unit": "nM"}]}, {"smiles": "COc1cccc(C(=O)CCCN2CCC(O)(c3ccccc3)CC2)c1", "note": "[Example 2(b), 4-[4-phenyl-4-hydroxypiperidin-1-yl]-1-(3-methoxyphenyl)butan-1-one, reference compound]", "values": [{"measurement": "Ki", "setting": "[1]", "result": 660, "unit": "nM"}]}, {"smiles": "NCCc1ccc(O)c(O)c1", "note": "[dopamine]", "values": [{"measurement": "Kd", "setting": "[13]", "result": "~1.75 nM and 1.75 nM"}]}]}
